Values after ≈ are worked out from the molar mass of the structure shown. Where two headings read alike, the source gives them in different places.
Key:
Staphylococcus aureus = assay: microbe, parasite or virus in culture; assay type: cell-based; settings: for MBC / MIC: Staphylococcus aureus; for MBC: read-out: Minimum Effective Concentration, Bactericidal
Streptococcus sp. = assay: microbe, parasite or virus in culture; assay type: cell-based; settings: for MBC / MIC: Streptococcus; for MBC: read-out: Minimum Effective Concentration, Bactericidal; for MIC: read-out: Minimum Effective Concentration, Bacteriostatic
Pseudomonas aeruginosa = assay: microbe, parasite or virus in culture; assay type: cell-based; settings: for MBC / MIC: Pseudomonas aeruginosa; for MBC: read-out: Minimum Effective Concentration, Bactericidal
Eberthella typhi = assay: microbe, parasite or virus in culture; assay type: cell-based; settings: for MBC: read-out: Minimum Effective Concentration, Bactericidal; for MIC: read-out: Minimum Effective Concentration, Bacteriostatic
Clostridium welchii = assay: microbe, parasite or virus in culture; assay type: cell-based
Endamoeba criceti = assay: chemotherapeutic evaluation in vivo in hamsters infected with Endamoeba criceti (amebacidal activity); design: species or system hamster; settings: oral
Proteus vulgaris = assay: microbe, parasite or virus in culture; assay type: cell-based; settings: read-out: Minimum Inhibitory Concentration
Escherichia coli = assay: microbe, parasite or virus in culture; assay type: cell-based; settings: read-out: Minimum Inhibitory Concentration
[1] = read-out: Minimum Effective Concentration, Bacteriostatic
[2] = Clostridium, read-out: Minimum Effective Concentration, Bactericidal
[3] = Clostridium, read-out: Minimum Effective Concentration, Bacteriostatic
[4] = read-out: Minimum Inhibitory Concentration

Compound | MBC (Staphylococcus aureus) | MIC (Staphylococcus aureus; [1]) | MBC (Pseudomonas aeruginosa) | MIC (Pseudomonas aeruginosa; [1]) | MBC (Eberthella typhi) | MIC (Eberthella typhi) | MBC (Clostridium welchii; [2]) | MIC (Clostridium welchii; [3]) | other results
2,2'-Dimethylbis{2-[4-(4'-nitrophenoxy)benzylamino]-ethyl}amine and 1,2'-Dimethylbis{2-[4-(4'-nitrophenoxy)benzylamino]ethyl}amine (Mixture of Isomers) [Example 9A] |  |  |  |  |  |  |  |  | Minimum Effective Concentration, Bactericidal (Staphylococcus aureus): 0.025 mg./cc.; Minimum Effective Concentration, Bacteriostatic (Staphylococcus aureus): 0.005 mg./cc.; Minimum Effective Concentration, Bactericidal (Streptococcus sp.): 0.01 mg./cc.; Minimum Effective Concentration, Bacteriostatic (Streptococcus sp.): 0.0075 mg./cc.; Minimum Effective Concentration, Bactericidal (Pseudomonas aeruginosa): > 1.0 mg./cc.; Minimum Effective Concentration, Bacteriostatic (Pseudomonas aeruginosa): 0.5 mg./cc.; Minimum Effective Concentration, Bactericidal (Eberthella typhi): 0.25 mg./cc.; Minimum Effective Concentration, Bacteriostatic (Eberthella typhi): 0.1 mg./cc.; Minimum Effective Concentration, Bactericidal (Clostridium welchii): 0.005 mg./cc.; Minimum Effective Concentration, Bacteriostatic (Clostridium welchii): 0.001 mg./cc.
O=[N+]([O-])c1ccc(Oc2ccc(C=NCCCCCCN=Cc3ccc(Oc4ccc([N+](=O)[O-])cc4)cc3)cc2)cc1 [Example 1A, N,N'-bis[4-(4'-nitrophenoxy)benzal]-1,6-hexanediamine] |  |  |  |  |  |  |  |  | animals cleared of amebic infection (Endamoeba criceti; 25 mg./kg./day): 4 out of 10; animals cleared of amebic infection (Endamoeba criceti; 50 mg./kg./day): 6 out of 10; animals cleared of amebic infection (Endamoeba criceti; 100 mg./kg./day): 3 out of 5
O=[N+]([O-])c1ccc(Oc2ccc(C=NCCCCCCCCN=Cc3ccc(Oc4ccc([N+](=O)[O-])cc4)cc3)cc2)cc1 [Example 2, N,N'-bis[4-(4'-nitrophenoxy)benzal]-1,8-octanediamine] |  |  |  |  |  |  |  |  | animals cleared of amebic infection (Endamoeba criceti; 12.5 mg./kg./day): 1 out of 5; animals cleared of amebic infection (Endamoeba criceti; 25 mg./kg./day): 2 out of 5; animals cleared of amebic infection (Endamoeba criceti; 50 mg./kg./day): 2 out of 5
O=[N+]([O-])c1ccc(Oc2ccc(C=NCCN=Cc3ccc(Oc4ccc([N+](=O)[O-])cc4)cc3)cc2)cc1 [Example 3, N,N'-bis[4-(4'-nitrophenoxy)benzal]-1,2-ethanediamine] |  |  |  |  |  |  |  |  | animals cleared of amebic infection (Endamoeba criceti; 100 mg./kg./day): 2 out of 5
O=[N+]([O-])c1ccc(Oc2ccc(CNCCCCCCCCNCc3ccc(Oc4ccc([N+](=O)[O-])cc4)cc3)cc2)cc1 [Example 6A, N,N'-bis[4-(4'-nitrophenoxy)benzyl]-1,8-octanediamine] | 5 mg/L (≈ 8.35 µM) | 0.5 mg/L (≈ 0.835 µM) | 1000 mg/L (≈ 1670 µM) | 750 mg/L (≈ 1250 µM) | 25 mg/L (≈ 41.8 µM) | 7.5 mg/L (≈ 12.5 µM) | 75 mg/L (≈ 125 µM) | 50 mg/L (≈ 83.5 µM) | 
O=[N+]([O-])c1ccc(Oc2ccc(CNCCCCCCNCc3ccc(Oc4ccc([N+](=O)[O-])cc4)cc3)cc2)cc1 [Example 7, N,N'-bis[4-(4'-nitrophenoxy)benzyl]-1,6-hexanediamine] | 7.5 mg/L (≈ 13.1 µM) | 1 mg/L (≈ 1.75 µM) | 500 mg/L (≈ 876 µM) | 250 mg/L (≈ 438 µM) | 50 mg/L (≈ 87.6 µM) | 7.5 mg/L (≈ 13.1 µM) | 25 mg/L (≈ 43.8 µM) | 25 mg/L (≈ 43.8 µM) | 
O=[N+]([O-])c1ccc(Oc2ccc(CNCCNCc3ccc(Oc4ccc([N+](=O)[O-])cc4)cc3)cc2)cc1 [Example 8, N,N'-bis[4-(4'-nitrophenoxy)benzyl]-1,2-ethanediamine] | 50 mg/L (≈ 97.2 µM) | 10 mg/L (≈ 19.4 µM) | > 100 mg/L | 75 mg/L (≈ 146 µM) | > 100 mg/L | 75 mg/L (≈ 146 µM) | 1 mg/L (≈ 1.94 µM) | 0.5 mg/L (≈ 0.972 µM) | 
O=[N+]([O-])c1ccc(Oc2ccc(CNCCCNCCCNCc3ccc(Oc4ccc([N+](=O)[O-])cc4)cc3)cc2)cc1 [Example 9B, Bis{3-[4-(4'-nitrophenoxy)benzylamino]propyl}amine] |  |  |  |  |  |  |  |  | MIC (Proteus vulgaris): 125 mg/L (≈ 213 µM); MIC (Escherichia coli): 0.2 mg/L (≈ 0.341 µM); MIC (Staphylococcus aureus; [4]): 0.05 mg/L (≈ 0.0854 µM); MIC (Pseudomonas aeruginosa; [4]): 3.1 mg/L (≈ 5.29 µM)
O=[N+]([O-])c1ccc(Oc2ccc(CNC[C@H]3CC[C@H](CNCc4ccc(Oc5ccc([N+](=O)[O-])cc5)cc4)CC3)cc2)cc1 [Example 10A, Trans-1,4-bis[4-(4'-nitrophenoxy)benzylaminomethyl]cyclohexane] | 50 mg/L (≈ 83.8 µM) | 10 mg/L (≈ 16.8 µM) |  |  | 75 mg/L (≈ 126 µM) | 50 mg/L (≈ 83.8 µM) | 100 mg/L (≈ 168 µM) | 100 mg/L (≈ 168 µM) | MBC (Streptococcus sp.): 25 mg/L (≈ 41.9 µM); MIC (Streptococcus sp.): 25 mg/L (≈ 41.9 µM)
CN(CCCCCCN(C)Cc1ccc(Oc2ccc([N+](=O)[O-])cc2)cc1)Cc1ccc(Oc2ccc([N+](=O)[O-])cc2)cc1 [Example 11A, N,N'-Dimethyl-N,N'-bis[4-(4'-nitrophenoxy)-benzyl]-1,6-hexanediamine] | 250 mg/L (≈ 418 µM) | 5 mg/L (≈ 8.35 µM) |  |  | 750 mg/L (≈ 1250 µM) | 500 mg/L (≈ 835 µM) | 500 mg/L (≈ 835 µM) | 250 mg/L (≈ 418 µM) | MBC (Streptococcus sp.): 5 mg/L (≈ 8.35 µM); MIC (Streptococcus sp.): 5 mg/L (≈ 8.35 µM)
O=C(Nc1ccccc1)N(CCCCCCN(Cc1ccc(Oc2ccc([N+](=O)[O-])cc2)cc1)C(=O)Nc1ccccc1)Cc1ccc(Oc2ccc([N+](=O)[O-])cc2)cc1 [Example 12A, N,N'-bis[4-(4'-nitrophenoxy)benzyl]-N,N'-bis(phenylcarbamyl)-1,6-hexanediamine] | 75 mg/L (≈ 92.7 µM) | 75 mg/L (≈ 92.7 µM) | > 100 mg/L | 75 mg/L (≈ 92.7 µM) | > 100 mg/L | 75 mg/L (≈ 92.7 µM) | 100 mg/L (≈ 124 µM) | 75 mg/L (≈ 92.7 µM) | 
O=C(C(Cl)Cl)N(CCN(Cc1ccc(Oc2ccc([N+](=O)[O-])cc2)cc1)C(=O)C(Cl)Cl)Cc1ccc(Oc2ccc([N+](=O)[O-])cc2)cc1 [Example 13A, N,N'-bis(dichloroacetyl)-N,N'-bis[4-(4'-nitrophenoxy)benzyl]-1,2-ethanediamine] | > 1000 mg/L | 750 mg/L (≈ 1020 µM) | 750 mg/L (≈ 1020 µM) | 750 mg/L (≈ 1020 µM) | 750 mg/L (≈ 1020 µM) | 750 mg/L (≈ 1020 µM) | > 1000 mg/L | 750 mg/L (≈ 1020 µM) | 
Nc1ccc(Oc2ccc(CNCCCCCCCCNCc3ccc(Oc4ccc(N)cc4)cc3)cc2)cc1 [Example 14A, N,N'-bis[4-(4'-aminophenoxy)benzyl]-1,8-octanediamine] | 25 mg/L (≈ 46.4 µM) | 7.5 mg/L (≈ 13.9 µM) | 1000 mg/L (≈ 1860 µM) | 750 mg/L (≈ 1390 µM) | 75 mg/L (≈ 139 µM) | 50 mg/L (≈ 92.8 µM) |  |  | MBC (Streptococcus sp.): 50 mg/L (≈ 92.8 µM); MIC (Streptococcus sp.): 25 mg/L (≈ 46.4 µM); MBC (Clostridium welchii; Clostridium; read-out: Minimum Effective Concentration, Bactericidal): 100 mg/L (≈ 186 µM); MIC (Clostridium welchii; Clostridium; read-out: Minimum Effective Concentration, Bacteriostatic): 100 mg/L (≈ 186 µM)
Cc1c(C)c(CCNCc2ccc(Oc3ccc([N+](=O)[O-])cc3)cc2)c(C)c(C)c1CCNCc1ccc(Oc2ccc([N+](=O)[O-])cc2)cc1 [Example 16A, Bis{2-[4-(4'-nitrophenoxy)benzylamino]ethyl}-2,3,5,6-tetramethylbenzene] | 75 mg/L (≈ 111 µM) | 7.5 mg/L (≈ 11.1 µM) |  |  | 750 mg/L (≈ 1110 µM) | 100 mg/L (≈ 148 µM) | 250 mg/L (≈ 370 µM) | 100 mg/L (≈ 148 µM) | MBC (Streptococcus sp.): 25 mg/L (≈ 37 µM); MIC (Streptococcus sp.): 2.5 mg/L (≈ 3.7 µM)

From patent US3940441A (priority 1974, dated 1976)
